This test has as its target T1, bovine Mincle (Bos taurus, UniProt E1BHM0).
T1 construct: mouse T-cell hybridoma with FcRgamma), plate assay
T1 sequence (E1BHM0 1-211): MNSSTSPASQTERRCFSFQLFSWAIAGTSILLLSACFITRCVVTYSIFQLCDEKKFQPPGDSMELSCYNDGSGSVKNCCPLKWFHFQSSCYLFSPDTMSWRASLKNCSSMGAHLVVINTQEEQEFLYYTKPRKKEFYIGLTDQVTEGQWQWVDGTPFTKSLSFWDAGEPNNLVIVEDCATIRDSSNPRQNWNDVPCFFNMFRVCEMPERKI
Briefly: Mincle ligand activity, NFAT-GFP reporter cells expressing bovine Mincle (Experimental Example 1). The test is classed as cell-based. The conditions noted are these: 0.03 to 3 nmol, FIG. 1 right. Here is the method: Similarly, using NFAT-GFP reporter cells expressing bovine Mincle, prepared according to the method described in a literature (Yamasaki, S. et al, Nat Immunol 9, 1179-88(2008)), the ligand activity of HD-276 was evaluated on a 96-well plate. The doses of the test compounds (horizontal axis) were 0.03 to 3 (nmol) from the left to right.

Each structure is given as a SMILES string.

On to `CCCCCCc1ccc(O[C@@H]2OC(C)[C@H](O)[C@H](OC)C2O[C@@H]2OC(C)[C@H](O[C@@H]3OC(COC)[C@@H](O)C(O)[C@@H]3O)[C@H](OC)C2OC)cc1` (stereo in doubt) [HD-276], for which the Mincle ligand activity result is “confirmed to have Mincle ligand activity”.

The values above are taken from patent US20260295038A1, “GLYCOLIPID DERIVATIVE AS MINCLE LIGAND” (priority 2023, published 2026).
